Reference: patent publication US10098350B2, “Fungicidal amides” (E. I. DU PONT DE NEMOURS AND COMPANY, priority 2013, dated 2018)

Tests used:
Assay type in all cases: in vivo
Botrytis cinerea = assay: Test A: tomato seedlings sprayed with test suspension, inoculated with Botrytis cinerea (gray mold), visual disease rating
From the text: (§1) General protocol for preparing test suspensions for Tests A-E: the test compounds were first dissolved in acetone in an amount equal to 3% of the final volume and then suspended at the desired concentration (in ppm) in acetone and purified water (50/50 mix by volume) containing 250 ppm of the surfactant Trem® 014 (polyhydric alcohol esters). The resulting test suspensions were then used in Tests A-E. Samples were applied to plants at either a 10 ppm (**), 40 ppm, 50 ppm (*) or 200 ppm (#) test solution to the point of run-off on the test plants with the equivalent of a rate of 40 g ai/ha, 160 g ai/ha, 200 g ai/ha, or 800 g ai/ha, respectively.
The test suspension was sprayed to the point of run-off on tomato seedlings. The following day the seedlings were inoculated with a spore suspension of Botrytis cinerea (the causal agent of gray mold on many crops) and incubated in a saturated atmosphere at 20° C. for 48 h, and moved to a growth chamber at 27° C. for 2 days, after which time visual disease ratings were made.
(§2) Results for Tests A-E are given in Table A. In the Table, a rating of 100 indicates 100% disease control and a rating of 0 indicates no disease control (relative to the controls). A dash (-) indicates no test results.

[1] = test system: Puccinia recondite f. sp. tritici; assay: Test D: wheat seedlings sprayed with test suspension, inoculated with Puccinia recondite f. sp. tritici (wheat leaf rust), visual disease rating
How it was run: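 Wheat seedlings were sprayed to run-off with compound suspended in 50/50 acetone–water containing 250 ppm Trem 014, at 10-200 ppm (40-800 g ai/ha). They were inoculated with rust spores the next day, then kept 24 h saturated at 20 °C and 6 days at 20 °C. Scores are visual % disease control versus untreated controls.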

[2] = test system: Stagonospora nodorum (also known as Septoria nodorum); assay: Test B: wheat seedlings sprayed with test suspension, inoculated with Stagonospora nodorum (wheat glume blotch), visual disease rating
From the text: as §1
The test suspension was sprayed to the point of run-off on wheat seedlings. The following day the seedlings were inoculated with a spore suspension of Stagonospora nodorum (also known as Septoria nodorum; the causal agent of wheat glume blotch) and incubated in a saturated atmosphere at 20° C. for 48 h, and then moved to a growth chamber at 20° C. for 6 days, after which time visual disease ratings were made.
as §2

[3] = test system: Erysiphe graminis f. sp. tritici; assay: Test E: wheat seedlings sprayed with test suspension, inoculated with Erysiphe graminis f. sp. tritici (wheat powdery mildew), visual disease rating
How it was run: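 Wheat seedlings sprayed to run-off with compound suspension (acetone 3%, acetone/water 50/50 with 250 ppm Trem 014) at 10, 40, 50 or 200 ppm (40–800 g ai/ha), inoculated next day with spore dust. Incubated 7 or 8 days at 20° C, then rated visually as % disease control relative to controls (0–100).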

Septoria tritici = assay: Test C: wheat seedlings sprayed with test suspension, inoculated with Septoria tritici (wheat leaf blotch), visual disease rating
How it was run: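 Wheat seedlings sprayed to run-off with compound suspended in acetone/water with 250 ppm Trem 014, at 10, 40, 50 or 200 ppm (40–800 g ai/ha). Inoculated with Septoria tritici spores the next day, held 48 h saturated at 24 °C, then 21 days at 20 °C. Visual rating 0–100% disease control relative to controls.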

[4] = Cmpd. No. marked '#' (other test rate; meaning of mark not shown)
[5] = Cmpd. No. unmarked, 100 = 100% disease control, 0 = no control relative to controls
[6] = Cmpd. No. marked '*' (other test rate; meaning of mark not shown)

Compound | Test A rating (% disease control) (Botrytis cinerea; [5]) [%] | Test D rating (% disease control) [1, 5] [%] | Test B rating (% disease control) [2, 5] [%] | Test E rating (% disease control) [3, 5] [%] | Test C rating (% disease control) (Septoria tritici; [5]) [%] | further results
Cn1cc(C(=O)N(Cc2ccc(-n3ccc(Cl)n3)cn2)C2CC2)c(C(F)F)n1 [compound 5] | 0 | 0 | 0 | 0 | 17 | Test A rating (% disease control) (Botrytis cinerea; [4]): 0%; Test D rating (% disease control) [1, 4]: 28%; Test B rating (% disease control) [2, 4]: 0%; Test E rating (% disease control) [3, 4]: 0%; Test C rating (% disease control) (Septoria tritici; [4]): 80%
Cn1cc(C(=O)N(Cc2cnc(-n3ccc(C(F)(F)F)n3)cc2Cl)C2CC2)c(C(F)(F)F)n1 [Compound 148] |  |  |  |  |  | Test A rating (% disease control) (Botrytis cinerea; [6]): 0%; Test D rating (% disease control) [1, 6]: 0%; Test B rating (% disease control) [2, 6]: 0%; Test E rating (% disease control) [3, 6]: 0%; Test C rating (% disease control) (Septoria tritici; [6]): 9%
Cn1cc(C(=O)N(Cc2c(Cl)cc(-n3ccc(C(F)(F)F)n3)cc2Cl)C2CC2)c(C(F)F)n1 [compound 36] | 0 | 99 | 99 | 90 |  | 
Cn1cc(C(=O)N(Cc2cc(-n3ccc(C(F)(F)F)n3)ccc2Cl)C2CC2)c(C(F)F)n1 [compound 30] | 0 | 31 | 60 | 64 | 87 | 
Cn1cc(C(=O)N(Cc2ccc(-n3cc(Br)cn3)cc2Cl)C2CC2)c(C(F)F)n1 [Compound 10] | 0 | 86 | 99 | 0 | 38 | 
N-cyclopropyl-3-(difluoromethyl)-1-methyl-N-[[3-[3-(trifluoromethyl)-1H-pyrazol-1-yl]phenyl]methyl]-1H-pyrazole-4-carboxamide [Compound 9] | 0 | 0 | 0 | 0 | 43 | Test A rating (% disease control) (Botrytis cinerea; [4]): 0%; Test D rating (% disease control) [1, 4]: 0%; Test B rating (% disease control) [2, 4]: 0%; Test E rating (% disease control) [3, 4]: 43%; Test C rating (% disease control) (Septoria tritici; [4]): 96%
Cc1ccsc1C(=O)N(Cc1cccc(-n2ccc(C(F)(F)F)n2)c1)C1CC1 [Compound 152] | 0 | 0 | 0 | 0 | 0 | 
Cc1ccc(-n2ccc(C(F)(F)F)n2)cc1CN(C(=O)c1cn(C)nc1C(F)F)C1CC1 [compound 28] | 11 | 45 | 99 | 59 | 45 | 
Cc1nc(C(F)(F)F)c(C(=O)N(Cc2cccc(-n3ccc(C(F)(F)F)n3)c2)C2CC2)s1 [Compound 150] | 0 | 9 | 0 | 0 | 48 | 
CC(c1ccc(-n2ccc(C(F)(F)F)n2)cc1Cl)N(C(=O)c1cn(C)nc1C(F)F)C1CC1 (centres unmarked) [compound 19] | 0 | 85 | 99 | 64 | 75 | 
CC(c1ncc(-n2ccc(C(F)(F)F)n2)cc1Cl)N(C(=O)c1cn(C)nc1C(F)F)C1CC1 (centres unmarked) [compound 17] | 0 | 23 | 100 | 92 | 99 | 
Cn1cc(C(=O)N(Cc2cccc(-n3ccc(C(F)(F)F)n3)c2)C2CC2)c(C(F)(F)F)n1 [Compound 149] | 0 | 0 | 0 | 0 | 43 | 
Cn1cc(C(=O)N(Cc2cc(-n3ccc(C(F)(F)F)n3)ccc2C2CC2)C2CC2)c(C(F)F)n1 [compound 33] | 0 | 68 | 98 | 94 |  | 
Cn1nc(C(F)F)c(C(=O)N(Cc2ccc(-n3ccc(C(F)(F)F)n3)cc2C(F)(F)F)C2CC2)c1F [compound 37] | 0 | 97 | 100 | 99 |  | 
Cc1ccc(C(C)N(C(=O)c2cn(C)nc2C(F)F)C2CC2)cc1-n1ccc(C(F)(F)F)n1 (centres unmarked) [compound 26] | 0 | 0 | 99 | 81 |  | 
Cn1cc(C(=O)N(Cc2cc(-n3ccc(C(F)(F)F)n3)ccc2Br)C2CC2)c(C(F)F)n1 [compound 32] | 0 | 0 | 0 | 97 |  | 
CC(c1cc(Cl)cc(-n2ccc(C(F)(F)F)n2)c1)N(C(=O)c1cn(C)nc1C(F)F)C1CC1 (centres unmarked) [compound 22] | 0 | 55 | 90 | 81 |  | 
Cn1cc(C(=O)N(Cc2cccc(-n3ccc(C(F)(F)F)n3)c2Cl)C2CC2)c(C(F)F)n1 [compound 38] | 14 | 41 | 0 | 69 |  | 
COc1cc(-n2ccc(C(F)(F)F)n2)ccc1CN(C(=O)c1c(C(F)F)nn(C)c1F)C1CC1 [compound 25] | 0 | 100 | 100 | 98 |  | 
Cn1cc(C(=O)N(Cc2c(Cl)cc(-n3cccn3)cc2Cl)C2CC2)c(C(F)F)n1 [compound 24] | 0 | 99 | 100 | 90 |  | 
CC(c1ccc(C(F)(F)F)c(-n2ccc(C(F)(F)F)n2)c1)N(C(=O)c1cn(C)nc1C(F)F)C1CC1 (centres unmarked) [compound 21] | 0 | 0 | 0 | 64 |  | 
CC(c1cc(-n2ccc(C(F)(F)F)n2)ccc1OC(F)(F)F)N(C(=O)c1cn(C)nc1C(F)F)C1CC1 (centres unmarked) [compound 130] |  | 68 | 93 | 72 | 28 | 
Cn1nc(C(F)F)c(C(=O)N(Cc2ccc(-n3ccc(C(F)(F)F)n3)cc2OC(F)(F)F)C2CC2)c1F [compound 23] | 0 | 99 | 98 | 98 |  | 
Cn1nc(C(F)F)c(C(=O)N(Cc2c(Cl)cc(-n3cccn3)cc2Cl)C2CC2)c1F [compound 125] |  | 100 | 100 | 92 | 99 | 
CC(C)c1cc(-n2ccc(C(F)(F)F)n2)ccc1CN(C(=O)c1c(C(F)F)nn(C)c1F)C1CC1 [compound 121] |  | 100 | 100 | 99 | 95 | 
Cn1nc(C(F)F)c(C(=O)N(Cc2ccc(-n3cncn3)cc2Cl)C2CC2)c1F [compound 145] |  | 0 | 95 | 0 | 95 | 
